Assay results from ChEMBL document CHEMBL5131569, “SAGE-718: A First-in-Class N-Methyl-d-Aspartate Receptor Positive Allosteric Modulator for the Potential Treatment of Cognitive Impairment” (J Med Chem, 2022).

How the values were obtained:
in vivo = conditions: CD-1, mouse, brain and plasma
Description: Ratio of AUC(0 to 72 hrs) in CD-1 mouse brain to plasma by LC-MS/MS analysis

Mus musculus = assay: Reversal of DOI-induced hyperlocomotion in CD-1 mouse assessed as reduction in distance travel at 10 mg/kg, ip administered 90 mins prior to DOI induction and measured upto 30 mins post DOI treatment (reference value: 7.8 +/- 0.8 meter); format: functional; conditions: time <= 120 min, 2 h
Cytochrome P450 3A4 = Cytochrome P450 3A4 (Homo sapiens, UniProt P08684); assay: Inhibition of CYP3A4 (unknown origin); format: ADME
Cytochrome P450 2C19 = Cytochrome P450 2C19 (Homo sapiens, UniProt P33261); assay: Inhibition of CYP2C19 (unknown origin); format: ADME
[1] = Metabolic stability in human hepatocytes assessed as clearance at 10 uM measured upto 120 mins by LC-MS/MS analysis; format: ADME, cell-based, Hepatocyte; conditions: 2 h
[2] = Drug concentration in CD-1 mouse plasma at 7.5 mg/kg, ip administered for 90 mins; format: ADME, organism-based
[3] = Clearance in CD-1 mouse by LC-MS/MS analysis; format: ADME; conditions: in vivo
[4] = target: Potassium voltage-gated channel subfamily A member 5 (Homo sapiens, UniProt P22460); assay: Inhibition of Kv1.5 (unknown origin) by patch clamp method
[5] = Metabolic stability in dog liver microsomes assessed as intrinsic clearance at 10 uM preincubated for 5 mins followed by NADPH addition and measured upto 65 mins by LC-MS/MS analysis; format: ADME, Canis lupus familiaris, Microsome; conditions: time < 70 min, read-out: CLH
[6] = Drug concentration in CD-1 mouse brain at 5 mg/kg, ip administered for 90 mins; format: ADME, organism-based; conditions: read-out: Ct

Sequence of Cytochrome P450 3A4 (P08684 whole entry): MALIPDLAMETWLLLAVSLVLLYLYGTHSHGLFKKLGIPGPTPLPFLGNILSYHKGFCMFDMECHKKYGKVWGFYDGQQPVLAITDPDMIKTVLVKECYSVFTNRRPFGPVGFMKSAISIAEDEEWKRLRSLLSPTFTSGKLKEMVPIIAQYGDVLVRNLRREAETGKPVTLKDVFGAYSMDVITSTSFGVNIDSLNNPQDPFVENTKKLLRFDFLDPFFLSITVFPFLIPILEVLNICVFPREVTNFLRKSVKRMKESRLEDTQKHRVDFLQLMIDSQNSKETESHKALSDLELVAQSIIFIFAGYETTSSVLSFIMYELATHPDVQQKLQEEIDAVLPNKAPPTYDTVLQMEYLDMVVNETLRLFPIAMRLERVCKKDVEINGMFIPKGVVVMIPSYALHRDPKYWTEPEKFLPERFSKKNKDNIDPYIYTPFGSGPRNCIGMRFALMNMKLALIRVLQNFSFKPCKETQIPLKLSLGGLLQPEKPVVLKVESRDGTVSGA
Sequence of Cytochrome P450 2C19 (P33261 whole entry): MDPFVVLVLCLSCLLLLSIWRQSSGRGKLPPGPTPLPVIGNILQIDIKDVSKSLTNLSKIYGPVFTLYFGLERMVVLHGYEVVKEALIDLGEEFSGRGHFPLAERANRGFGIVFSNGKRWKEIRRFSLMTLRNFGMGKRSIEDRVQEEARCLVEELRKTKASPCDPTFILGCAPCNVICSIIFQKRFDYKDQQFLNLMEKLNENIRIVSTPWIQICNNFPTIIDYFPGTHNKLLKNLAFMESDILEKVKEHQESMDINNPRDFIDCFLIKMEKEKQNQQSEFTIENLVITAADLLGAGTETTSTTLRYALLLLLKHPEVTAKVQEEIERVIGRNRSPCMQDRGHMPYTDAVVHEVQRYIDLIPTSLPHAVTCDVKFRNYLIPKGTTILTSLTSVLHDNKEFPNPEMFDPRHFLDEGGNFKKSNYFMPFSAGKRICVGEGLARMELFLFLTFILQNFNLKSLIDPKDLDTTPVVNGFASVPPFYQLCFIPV
Sequence of Potassium voltage-gated channel subfamily A member 5 (P22460 whole entry): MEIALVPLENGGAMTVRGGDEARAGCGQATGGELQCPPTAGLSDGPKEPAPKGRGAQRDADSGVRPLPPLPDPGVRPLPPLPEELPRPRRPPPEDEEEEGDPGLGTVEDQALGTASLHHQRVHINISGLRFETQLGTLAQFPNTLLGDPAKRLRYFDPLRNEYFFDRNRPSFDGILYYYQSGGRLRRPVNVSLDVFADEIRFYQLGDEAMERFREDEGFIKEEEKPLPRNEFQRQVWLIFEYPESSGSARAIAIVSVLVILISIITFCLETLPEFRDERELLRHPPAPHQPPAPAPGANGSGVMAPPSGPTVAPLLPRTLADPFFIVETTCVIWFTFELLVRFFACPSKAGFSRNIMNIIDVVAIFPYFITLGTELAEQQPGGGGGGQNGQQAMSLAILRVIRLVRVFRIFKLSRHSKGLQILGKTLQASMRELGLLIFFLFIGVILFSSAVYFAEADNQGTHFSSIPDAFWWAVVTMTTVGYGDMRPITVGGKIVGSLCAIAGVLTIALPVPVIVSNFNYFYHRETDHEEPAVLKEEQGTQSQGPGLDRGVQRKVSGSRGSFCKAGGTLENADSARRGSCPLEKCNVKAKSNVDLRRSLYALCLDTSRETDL

Kp (in vivo): 1.8 | IC50 (Cytochrome P450 3A4): > 100 µM | IC50 (Cytochrome P450 2C19): > 100 µM | CLH [1]: 6.7 mL/min/kg | concentration at 1.5 h [2]: 1590 ng/mL | clearance [3]: 5 mL/min/kg | IC50 [4]: > 30 µM | microsomal CLint at 10 µM [5]: 4.7 µL/min/mg | concentration at 1.5 h [6]: 894 ng/g
SMILES: C[C@H](CC[C@](C)(O)C(F)(F)F)[C@H]1CC[C@H]2[C@@H]3CC=C4C[C@@](C)(O)CC[C@]4(C)[C@H]3CC[C@]12C [DALZANEMDOR]
Activity (Mus musculus): 1.1 m
